Literature values, collected in article PMC9851200, “Multiparameter phenotypic screening for endogenous TFEB and TFE3 translocation identifies novel chemical series modulating lysosome function” (Autophagy, 2022).

Key:
Set-up in all cases: method as in original PKIS2 published data
[1] = target: T1, kinases (KINOMEscan panel) (Homo sapiens, UniProt Q13873); conditions: kinase BMPR2; Published KINOMEscan; ref original PKIS2 published data; cited from earlier work
T1 sequence (Q13873 27-1038): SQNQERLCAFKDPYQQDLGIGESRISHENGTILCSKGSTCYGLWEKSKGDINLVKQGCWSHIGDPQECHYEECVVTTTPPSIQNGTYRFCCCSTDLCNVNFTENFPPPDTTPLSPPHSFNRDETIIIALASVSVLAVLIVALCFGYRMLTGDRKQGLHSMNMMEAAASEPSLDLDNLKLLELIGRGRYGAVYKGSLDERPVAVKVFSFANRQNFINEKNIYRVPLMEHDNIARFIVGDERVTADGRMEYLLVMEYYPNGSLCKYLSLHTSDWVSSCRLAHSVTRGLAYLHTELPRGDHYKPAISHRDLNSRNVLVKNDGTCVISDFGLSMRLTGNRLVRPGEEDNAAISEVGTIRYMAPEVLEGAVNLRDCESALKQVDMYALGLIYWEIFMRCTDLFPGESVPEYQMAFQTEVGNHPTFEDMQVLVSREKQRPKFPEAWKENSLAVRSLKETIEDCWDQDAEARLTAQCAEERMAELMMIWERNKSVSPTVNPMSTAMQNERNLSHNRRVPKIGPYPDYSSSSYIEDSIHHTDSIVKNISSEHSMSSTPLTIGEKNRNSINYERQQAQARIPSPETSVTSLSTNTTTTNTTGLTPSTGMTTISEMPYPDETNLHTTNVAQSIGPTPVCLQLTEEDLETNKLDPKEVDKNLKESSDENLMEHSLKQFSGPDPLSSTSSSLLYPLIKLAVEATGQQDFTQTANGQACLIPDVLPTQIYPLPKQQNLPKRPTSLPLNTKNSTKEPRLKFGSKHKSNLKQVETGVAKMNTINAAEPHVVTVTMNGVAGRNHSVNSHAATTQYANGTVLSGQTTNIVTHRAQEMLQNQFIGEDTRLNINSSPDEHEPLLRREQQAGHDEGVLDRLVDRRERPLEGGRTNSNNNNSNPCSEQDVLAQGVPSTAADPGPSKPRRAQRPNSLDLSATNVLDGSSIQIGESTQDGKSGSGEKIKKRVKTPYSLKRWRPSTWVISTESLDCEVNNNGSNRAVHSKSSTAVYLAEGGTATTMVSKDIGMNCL

[2] = target: T2, kinases (KINOMEscan panel) (Homo sapiens, UniProt Q9UL54); conditions: kinase TAOK2; Published KINOMEscan; ref original PKIS2 published data; cited from earlier work
T2 sequence (Q9UL54 1-1235): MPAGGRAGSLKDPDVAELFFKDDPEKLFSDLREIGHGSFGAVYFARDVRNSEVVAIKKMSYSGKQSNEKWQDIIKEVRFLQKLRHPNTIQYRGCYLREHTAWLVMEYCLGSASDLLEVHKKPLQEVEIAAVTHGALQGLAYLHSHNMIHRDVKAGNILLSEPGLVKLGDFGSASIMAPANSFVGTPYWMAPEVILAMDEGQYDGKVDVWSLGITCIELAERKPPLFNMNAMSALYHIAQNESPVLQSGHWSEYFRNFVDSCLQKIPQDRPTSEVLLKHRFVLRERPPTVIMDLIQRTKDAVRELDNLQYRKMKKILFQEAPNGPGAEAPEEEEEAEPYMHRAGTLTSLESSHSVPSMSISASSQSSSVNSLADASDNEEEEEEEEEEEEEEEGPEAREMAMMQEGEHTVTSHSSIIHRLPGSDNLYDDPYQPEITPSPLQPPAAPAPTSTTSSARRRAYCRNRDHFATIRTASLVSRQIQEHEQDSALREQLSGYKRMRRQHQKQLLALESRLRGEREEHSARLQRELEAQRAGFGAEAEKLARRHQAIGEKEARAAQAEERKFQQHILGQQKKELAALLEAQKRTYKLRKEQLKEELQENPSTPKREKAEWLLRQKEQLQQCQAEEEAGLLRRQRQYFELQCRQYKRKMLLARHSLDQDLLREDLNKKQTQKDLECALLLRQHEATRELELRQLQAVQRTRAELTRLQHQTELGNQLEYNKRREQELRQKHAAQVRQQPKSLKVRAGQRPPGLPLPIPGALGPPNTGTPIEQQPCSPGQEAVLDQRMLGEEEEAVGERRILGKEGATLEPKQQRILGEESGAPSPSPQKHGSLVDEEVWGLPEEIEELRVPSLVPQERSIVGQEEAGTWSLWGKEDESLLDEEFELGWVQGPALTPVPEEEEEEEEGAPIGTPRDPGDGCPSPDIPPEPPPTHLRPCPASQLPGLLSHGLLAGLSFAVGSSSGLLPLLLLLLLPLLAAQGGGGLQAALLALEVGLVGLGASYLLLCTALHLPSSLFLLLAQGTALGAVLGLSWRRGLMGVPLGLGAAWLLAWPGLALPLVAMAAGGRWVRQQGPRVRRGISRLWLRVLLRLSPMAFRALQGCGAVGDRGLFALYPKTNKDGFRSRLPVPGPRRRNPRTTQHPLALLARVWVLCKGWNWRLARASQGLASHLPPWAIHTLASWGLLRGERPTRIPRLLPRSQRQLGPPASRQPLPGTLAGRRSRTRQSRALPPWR

[3] = target: T3, kinases (KINOMEscan panel) (Homo sapiens, UniProt P42680); conditions: kinase TEC; Published KINOMEscan; ref original PKIS2 published data; cited from earlier work
T3 sequence (P42680 1-631): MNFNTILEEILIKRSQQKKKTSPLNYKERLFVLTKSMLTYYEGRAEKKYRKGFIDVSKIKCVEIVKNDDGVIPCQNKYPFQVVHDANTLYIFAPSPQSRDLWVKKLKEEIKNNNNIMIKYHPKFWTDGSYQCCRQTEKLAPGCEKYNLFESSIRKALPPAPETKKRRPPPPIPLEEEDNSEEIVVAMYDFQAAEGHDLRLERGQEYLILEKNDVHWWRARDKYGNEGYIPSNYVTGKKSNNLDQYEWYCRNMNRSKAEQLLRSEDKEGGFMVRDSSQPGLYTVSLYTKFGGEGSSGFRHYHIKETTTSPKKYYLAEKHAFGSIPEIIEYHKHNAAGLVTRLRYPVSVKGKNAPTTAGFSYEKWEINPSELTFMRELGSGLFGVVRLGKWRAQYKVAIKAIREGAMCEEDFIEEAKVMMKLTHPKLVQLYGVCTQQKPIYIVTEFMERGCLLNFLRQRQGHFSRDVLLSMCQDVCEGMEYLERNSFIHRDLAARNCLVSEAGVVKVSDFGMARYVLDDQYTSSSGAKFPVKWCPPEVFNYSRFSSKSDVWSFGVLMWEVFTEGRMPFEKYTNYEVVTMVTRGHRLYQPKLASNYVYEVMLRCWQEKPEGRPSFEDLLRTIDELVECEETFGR

## Cc1cccc(-c2nc(Nc3ccncc3)c3ccccc3n2)n1 [NK215]
[1]
  KINOMEscan BMPR2: 0
[2]
  KINOMEscan TAOK2: 17
[3]
  KINOMEscan TEC: 10
